Values of other authors as cited in publication PMC5762859, “Distribution analysis of epertinib in brain metastasis of HER2-positive breast cancer by imaging mass spectrometry and prospect for antitumor activity” (Scientific Reports, 2018).

How the values were obtained:
[1] = healthy volunteers, single oral 250 mg [14C]-lapatinib; cited from earlier work
[2] = target: T1, breast cancer resistance protein (BCRP) (Homo sapiens, UniProt Q9UNQ0); conditions: cited from earlier work
T1 construct: permeability and efflux ratio of epertinib across Caco-2 cell monolayers; endogenous in cells; host or cells: Caco-2
T1 sequence (Q9UNQ0 1-655): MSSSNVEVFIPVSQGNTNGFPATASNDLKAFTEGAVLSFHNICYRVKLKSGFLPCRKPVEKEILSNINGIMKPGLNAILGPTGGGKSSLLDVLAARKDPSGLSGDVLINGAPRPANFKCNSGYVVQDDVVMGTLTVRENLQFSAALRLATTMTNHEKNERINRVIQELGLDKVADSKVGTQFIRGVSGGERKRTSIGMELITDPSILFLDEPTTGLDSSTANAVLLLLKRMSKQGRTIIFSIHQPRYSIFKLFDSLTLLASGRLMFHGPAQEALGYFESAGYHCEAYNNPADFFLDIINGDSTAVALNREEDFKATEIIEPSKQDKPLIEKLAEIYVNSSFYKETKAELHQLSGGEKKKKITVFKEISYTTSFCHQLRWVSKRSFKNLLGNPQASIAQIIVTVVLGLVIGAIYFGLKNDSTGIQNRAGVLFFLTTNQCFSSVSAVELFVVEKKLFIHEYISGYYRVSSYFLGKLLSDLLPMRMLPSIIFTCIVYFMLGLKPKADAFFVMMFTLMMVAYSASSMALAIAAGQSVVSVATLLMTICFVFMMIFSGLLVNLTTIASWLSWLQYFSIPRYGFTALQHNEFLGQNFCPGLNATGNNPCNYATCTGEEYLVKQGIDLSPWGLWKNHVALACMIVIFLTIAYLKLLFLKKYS

P-glycoprotein (P-gp) = target: T2, P-glycoprotein (P-gp) (Homo sapiens, UniProt P08183); conditions: cited from earlier work
T2 construct: permeability and efflux ratio of epertinib across Caco-2 cell monolayers; endogenous in cells; host or cells: Caco-2
T2 sequence (P08183 whole entry): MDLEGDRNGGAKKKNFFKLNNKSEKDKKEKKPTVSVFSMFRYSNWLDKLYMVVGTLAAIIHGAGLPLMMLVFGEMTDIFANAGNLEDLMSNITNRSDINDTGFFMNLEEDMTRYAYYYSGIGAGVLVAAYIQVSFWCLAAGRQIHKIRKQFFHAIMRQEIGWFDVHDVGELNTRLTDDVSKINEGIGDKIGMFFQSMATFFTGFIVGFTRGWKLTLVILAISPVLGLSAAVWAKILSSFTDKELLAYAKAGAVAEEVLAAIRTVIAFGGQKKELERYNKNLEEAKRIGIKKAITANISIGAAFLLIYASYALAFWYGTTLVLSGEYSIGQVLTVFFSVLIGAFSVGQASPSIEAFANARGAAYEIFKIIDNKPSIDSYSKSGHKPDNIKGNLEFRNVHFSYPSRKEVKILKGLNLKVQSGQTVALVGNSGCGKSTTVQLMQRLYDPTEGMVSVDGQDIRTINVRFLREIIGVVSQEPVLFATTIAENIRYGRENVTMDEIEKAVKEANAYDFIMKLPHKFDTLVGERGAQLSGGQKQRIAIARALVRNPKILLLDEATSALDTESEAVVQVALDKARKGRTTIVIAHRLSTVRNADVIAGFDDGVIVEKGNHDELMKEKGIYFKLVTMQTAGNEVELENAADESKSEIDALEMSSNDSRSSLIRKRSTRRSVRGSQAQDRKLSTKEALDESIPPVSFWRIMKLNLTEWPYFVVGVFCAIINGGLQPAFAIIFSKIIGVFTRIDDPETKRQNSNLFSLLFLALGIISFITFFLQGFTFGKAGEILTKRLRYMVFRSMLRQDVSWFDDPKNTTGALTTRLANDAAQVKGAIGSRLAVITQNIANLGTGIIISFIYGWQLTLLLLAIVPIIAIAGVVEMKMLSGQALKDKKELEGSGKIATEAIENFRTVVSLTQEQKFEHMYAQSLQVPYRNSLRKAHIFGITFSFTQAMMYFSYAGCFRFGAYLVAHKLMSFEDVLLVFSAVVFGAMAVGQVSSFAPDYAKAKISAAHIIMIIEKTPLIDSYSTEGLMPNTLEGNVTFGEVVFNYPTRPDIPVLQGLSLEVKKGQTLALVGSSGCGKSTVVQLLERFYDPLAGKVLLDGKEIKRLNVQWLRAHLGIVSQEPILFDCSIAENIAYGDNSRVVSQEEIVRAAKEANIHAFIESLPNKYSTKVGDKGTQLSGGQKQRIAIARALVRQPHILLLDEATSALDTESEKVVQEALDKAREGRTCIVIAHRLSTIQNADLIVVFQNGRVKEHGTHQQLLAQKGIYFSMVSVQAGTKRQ

[3] = tested on: HER2-positive metastatic breast cancer patients; conditions: historical data, combination with trastzumab; cited from earlier work

SMILES | Mean plasma concentration of total radioactivity at Cmax [1] [ng eq./mL] | BCRP substrate [2] | P-gp substrate (P-glycoprotein (P-gp)) | Objective response rate (ORR) [3] [%]
CS(=O)(=O)CCNCc1ccc(-c2ccc3ncn[14c](Nc4ccc(OCc5cccc(F)c5)c(Cl)c4)c3c2)o1.Cc1ccc(S(=O)(=O)O)cc1.O [[^14C]-lapatinib] | 720 |  |  | 
CN(C)C/C=C/C(=O)Nc1cc2c(Nc3ccc(F)c(Cl)c3)ncnc2cc1O[C@H]1CCOC1 [afatinib] |  | substrates | substrates | 
CCOc1cc2ncc(C#N)c(Nc3ccc(OCc4ccccn4)c(Cl)c3)c2cc1NC(=O)/C=C/CN(C)C [neratinib] |  | substrates | substrates | 
Cc1cc(Nc2ncnc3ccc(NC4=NC(C)(C)CO4)cc23)ccc1Oc1ccn2ncnc2c1 [tucatinib] |  | substrates | substrates | 26
